Reference: patent publication US7183094B2, “Bacterial mycothiol S-conjugate amidase family” (The Regents of the University of California, priority 1999, dated 2007)

Legend:
[1] = biological target: T1, purified M. smegmatis mycothiol S-conjugate amidase (Mycolicibacterium smegmatis, UniProt A0R2W9); test: Substrate specificity of purified mycothiol S-conjugate amidase (GlcN-Ins production); type: biochemical, Mycobacterium smegmatis; conditions: for Activity: GlcN-Ins production from 0.1 mM substrate by 0.022 μg purified amidase at 30 C; for Relative Activity (%): relative to MSmB taken as 100%, 0.1 mM substrate
Protocol: The specificity of the amidase for substrate was assessed by measuring the production of GlcN-Ins in most cases. A sample (5 μL) of 1 mM substrate was mixed with 40 μL of 3 mM 2-mercaptoethanol, 25 mM HEPES chloride, pH 7.5. The reaction was initiated with 5 μL of purified amidase (50-fold diluted stock, 4.4 μg ml^−1). Triplicate samples were quenched at 0, 10, and 30 min by mixing each sample with 50 μL of acetonitrile containing 5 mM NEM and incubating at 60 C for 10 min. After cooling on ice, the samples were clarified by centrifugation for 15 min at 14000 g. […]

[2] = biological target: mycothiol S-conjugate amidase in partially purified M. smegmatis cell extract (Mycolicibacterium smegmatis, UniProt A0R2W9); conditions: for product yielded from 1.0 equivalent of MSmB (0.1 nmol): 4 determinations at >50% conversion
Protocol: The experiment was repeated using a partially purified cell extract and samples of the incubation mixture were analyzed at intervals for the other potential product of MSmB cleavage, GlcN-Ins, as well as for MSmB and AcCySmB.
A preparation of the mycothiol S-conjugate amidase (30–50% saturated ammonium sulfate fraction chromatographed on Sephadex G-75) was used to study the stoichiometry of the reaction. Reaction was initiated by mixing a sample (9 μL, 7 μg total protein) of the preparation of the enzyme with 0.9 mL of 50 mM sodium phosphate, pH 7.5 containing 100 μM MSmB.
For determination of bimane derivatives of thiols, a sample (70 μL) of reaction mixture was removed, mixed with 4 μL 5 M methanesulfonic acid, and analyzed by HPLC without dilution.
For analysis of GlcN-Ins, a sample (2–8 μL) of the reaction mixture was mixed with enough 1M HEPES chloride pH 8 to bring the volume to 10 μl and then with 5 μL acetonitrile and 5 μL of 10 mM AccQ-Fluor reagent (6-aminoquinolyl-N-hydroxysuccinimidyl carbamate, Waters). The mixtures were incubated for 1 min at room temperature followed by 10 min at 60° C., diluted with 60 μL of water, and quantified by HPLC as previously described (S. J. Anderberg, et al. (1998) supra.).

[3] = test system: M. smegmatis mutant blocked in mycothiol production; conditions: Newton et al. (1999); cited from earlier work
[4] = biological target: T1, purified M. smegmatis mycothiol S-conjugate amidase
Protocol: In vitro Enzymatic assays. […] Separation of the various modified thiols was performed by high-pressure liquid chromatography (HPLC). A sample (2–10 μL) of extract was mixed with 40 μL of 30 μM MSmB in 3 mM 2-mercaptoethanol, 25 mM N-2-hydroxyethylpiperazine-N′-2-ethanesulfonic acid (HEPES) chloride pH 7.5 and reacted […] at 30° C. before quenching the reaction with 50 μL of 40 mM methanesulfonic acid on ice. The mixture was centrifuged for 3 min at 14,000×g in a microcentrifuge at room temperature and the supernatant analyzed by HPLC without dilution. A shortened version (45 min) of HPLC method 1 of Fahey and Newton (R. C. Fahey, et al. (1987) Methods Enzymol. 143:85–96) was used for separation of MSmB and AcCySmB.

[5] = biological target: M. tuberculosis mycothiol S-conjugate amidase (Rv1082) (Mycobacterium tuberculosis, UniProt P9WJN1); test: Amidase activity of recombinant Rv1082 protein expressed in E. coli; type: biochemical, Mycobacterium tuberculosis H37Rv; conditions: for amidase activity: 0.1 mM (100 μM) substrate, extracts of IPTG-induced cells
Protocol: Purification and renaturation of mycothiol S-conjugate amidase from inclusion bodies. The approach taken involved solublization of the inclusion bodies in a highly concentrated urea and DTT solution followed by […] Cells were cultured in Luria Bertani broth containing 100 μg/mL ampicillin at 37° C. to OD600=0.8 when isopropyl-β-D-thiogalactopyranoside added to 0.4 mM and the culture was shaken overnight at 25° C. Cells were pelleted by centrifugation for 10 min at 5000 g and 4° C., sonicated in 5 volumes of assay buffer on ice, and centrifuged for 5 min at 14000 g at room temperature. About 85% of the amidase activity, using MSmB as substrate, was associated with the pellet fraction which was resuspended and incubated with periodic vortexing for 1 h at 37° C. in 8 M urea containing 20 mM DTT. The suspension was centrifuged for 3 min at 14000 g and the supernatant dialyzed against 100 volumes of 25 mM HEPES chloride pH 7.5 containing 1 mM glutathione disulfide and 2 mM glutathione for 15 h, and then against 100 volumes of 25 mM HEPES chloride pH 7.5 containing 3 mM 2-mercaptoethanol for 4 h. After centrifugation, the supernatant contained soluble amidase activity and was assayed with 0.1 mM mycothiol and 0.1 mM MSmB as described above.
Alkylation of MSH with mBBr produces the fluorescent S-conjugate, MSmB, which can be quantitated by HPLC with fluorescence detection (Newton et al. 1995; Newton et al. 1996). E coli has no mycothiol metabolism and is not expected to contain mycothiol conjugate amidase endogenous proteins that would give background to these assays.
Functional and Comparative analysis of mycothiol S-conjugate amidase. […] When these extracts were assayed with 0.1 mM mycothiol as substrate, <0.002 nmol/min/mg amidase activity was observed. […] (Table 2).

[6] = biological target: M. smegmatis mycothiol S-conjugate amidase (Mycolicibacterium smegmatis, UniProt A0R2W9); test: Inhibition of amidase cleavage of MSmB; type: biochemical, Mycobacterium smegmatis; conditions: 100 μM MSmB as substrate, n=2
Protocol: Tests were also conducted to determine whether mycothiol inhibits the cleavage of 100 μM MSmB by invention S-conjugate amidase. The amidase activity was decreased by 30±3, 48±3, and 89±3% (n=2) at 1, 3, and 10 mM mycothiol, respectively.
Preparation of Mycothiol S-conjugates. Mycothiol S-conjugates were prepared by reaction of excess electrophile with mycothiol followed by removal or reaction of excess electrophile. Stock solutions (100 mM) of electrophile were prepared in acetonitrile (NEM, iodoacetamide; Sigma) or in dimethylsulfoxide [7-diethylamino-3-(4′-maleimidylphenyl)-4-methylcoumarin (CPM, Molecular Probes), 3-(N-maleimidopropionyl)biocytin (MPB, Sigma)]. Reaction with these electrophiles at 2 mM in 25 mM *HEPES chloride pH 7.5 was initiated by addition of mycothiol to 1 mM from a 32 mM stock solution in H2O (pH˜3) and was allowed to proceed 15 min in the dark. Excess reagent was removed by extracting 3 times with an equal volume of H2O-saturated dichloromethane. A cerulenin (Sigma) stock solution (100 mM in acetonitrile) was diluted 5-fold in 25 mM HEPES chloride pH 7.5, reacted 15 min with 1 mM mycothiol, and extracted 5 times with H2O-saturated dichloromethane. Prior to extraction a 1 μL aliquot was withdrawn for reaction with mBBr and analysis of residual mycothiol by HPLC. […] Stock solutions (50 mM) of p-sulfobenzoyloxybromobimane (sBBr) and monobromotrimethylammoniobimane (qBBr) were prepared in 50% aqueous dimethylsulfoxide and diluted to 2 mM for reaction with 1 mM mycothiol in 25 mM HEPES chloride pH 7.5 for 15 min. Since these charged electrophiles cannot be extracted with dichloromethane, reaction was terminated with excess (1.1 mM) 2-mercaptoethanol.

[7] = test system: M. smegmatis mc^2155 cells; test: M. smegmatis culture treated with mBBr: fate of mycothiol-related compounds and growth; type: cell-based, Mycobacterium smegmatis
Protocol: Since mBBr is known to penetrate cells rapidly and to convert intracellular thiols to their bimane derivatives (Newton, et al. (1995) supra.), the fate of mycothiol in M. smegmatis cells treated with mBBr was examined to ascertain whether the reaction shown in FIG. 1C occurs in vivo. A logarithmic phase culture of M. smegmatis was cooled on ice to ˜3° C. to reduce enzymatic reactions prior to reaction with 0.5 mM mBBr. Excess reagent was reacted with 2-mercaptoethanol and the cells were pelleted, washed, and resuspended in a small amount of ice cold medium. The cells were diluted with prewarmed medium and replaced in the shaking incubator at 37° C. (time, t=0). Samples were removed and analyzed for intracellular and extracellular mycothiol related compounds over a 4 h interval (FIG. 3).
A logarithmic phase culture of M. smegmatis was cooled on ice to ˜3° C. to reduce enzymatic reactions prior to reaction with 0.5 mM mBBr. Excess reagent was reacted with 2-mercaptoethanol and the cells were pelleted, washed, and resuspended in a small amount of ice cold medium. The cells were diluted with prewarmed medium and replaced in the shaking incubator at 37° C. (time, t=0). Samples were removed and analyzed for intracellular and extracellular mycothiol related compounds over a 4 h interval (FIG. 3).
At t=0, […] per 100 mL (3.5 μmol per g RDW) of AcCySmB was present in the cells and […] per 100 mL was found in the medium. Within 5 min the cellular AcCySmB level had fallen to […] per 100 mL and the medium level increased to 220 nmol per 100 mL. Subsequent analyses found essentially all of the AcCySmB in the medium at a level of 225–230 nmol per 100 mL, accounting for 80–90% of the original cellular mycothiol content. No MSmB appears to be exported from cells as […] (<0.5%) was detected in the medium or the cell washes. A logarithmic phase culture (1 L) of M. smegmatis mc^2155 (OD600=1.2) in 7H9 Middlebrook medium was cooled on ice to 3° C. The iced culture was incubated with mBBr (0.5 mM from a 180 mM stock solution in acetonitrile) for 20 min; excess 2-mercaptoethanol (1.0 mM) was added, and the incubation continued on ice for an additional 10 min. The cells were pelleted by centrifugation and washed twice with 200 mL of sterile, ice-cold 7H9 Middlebrook medium to remove excess bimane derivative of 2-mercaptoethanol. The cells were resuspended in 50 mL of sterile ice cold medium and the experiment was initiated (t=0) by dilution into 950 mL of prewarmed (37° C.) 7H9 Middlebrook medium. The cell suspension was shaken in an incubator (225 rpm, 37° C.) and a “t=0” sample (100 mL) was removed from the culture within one min. […]

[8] = 0.1 mM substrate, resolubilized crude protein extract

Chain of mycothiol S-conjugate amidase in partially purified M. smegmatis cell extract (A0R2W9 whole entry): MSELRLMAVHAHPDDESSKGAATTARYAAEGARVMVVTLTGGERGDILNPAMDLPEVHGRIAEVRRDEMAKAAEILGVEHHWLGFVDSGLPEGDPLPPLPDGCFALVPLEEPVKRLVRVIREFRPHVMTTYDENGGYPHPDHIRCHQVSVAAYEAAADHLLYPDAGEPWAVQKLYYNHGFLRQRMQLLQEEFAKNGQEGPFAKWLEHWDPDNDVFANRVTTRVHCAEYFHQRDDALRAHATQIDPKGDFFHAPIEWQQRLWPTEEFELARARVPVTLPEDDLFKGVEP
Chain of M. smegmatis mycothiol S-conjugate amidase (A0R2W9 whole entry): as above
T1 sequence (A0R2W9 whole entry): as above
Chain of M. tuberculosis mycothiol S-conjugate amidase (Rv1082) (P9WJN1 whole entry, looked up): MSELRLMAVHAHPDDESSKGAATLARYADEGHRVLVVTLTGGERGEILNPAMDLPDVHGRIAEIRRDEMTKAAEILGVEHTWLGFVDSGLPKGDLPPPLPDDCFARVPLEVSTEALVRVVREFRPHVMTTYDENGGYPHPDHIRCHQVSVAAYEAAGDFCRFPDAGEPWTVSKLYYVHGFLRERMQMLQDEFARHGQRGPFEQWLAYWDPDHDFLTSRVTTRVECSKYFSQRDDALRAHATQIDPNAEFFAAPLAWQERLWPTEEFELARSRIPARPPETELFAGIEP

CC(=O)N[C@@H](CSSC[C@H](NC(C)=O)C(=O)N[C@H]1[C@@H](OC2[C@H](O)[C@H](O)C(O)[C@H](O)[C@H]2O)O[C@H](CO)[C@@H](O)[C@@H]1O)C(=O)N[C@H]1[C@@H](OC2[C@H](O)[C@H](O)C(O)[C@H](O)[C@H]2O)O[C@H](CO)[C@@H](O)[C@@H]1O (some centres unmarked) [Mycothiol disulfide]
Activity [1]: 25 ± 1 nmol/min/mg
Relative Activity (%) [1]: 0.6%

N[C@H]1[C@@H](OC2[C@H](O)[C@H](O)C(O)[C@H](O)[C@H]2O)O[C@H](CO)[C@@H](O)[C@@H]1O (stereo partly drawn) [GlcN-Ins, 1-D-myo-inosityl-2-amino-2-deoxy-α-D-glucopyranoside]
product yielded from 1.0 equivalent of MSmB (0.1 nmol) [2]: 0.80±0.08 equivalent

CO[C@H]1/C=C/O[C@@]2(C)Oc3c(C)c(O)c4c(O)c(c(/C=N/N5CCN(C)CC5)c(O)c4c3C2=O)NC(=O)/C(C)=C\C=C\[C@H](C)[C@H](O)[C@@H](C)[C@@H](O)[C@@H](C)[C@H](OC(C)=O)[C@@H]1C [rifampin]
increased sensitivity of the mutant [3]: 20 fold

CC(=O)N[C@@H](CSCc1c(C)c(=O)n2c(=O)c(C)c(C)n12)C(=O)N[C@H]1[C@@H](OC2[C@H](O)[C@H](O)C(O)[C@H](O)[C@H]2O)O[C@H](CO)[C@@H](O)[C@@H]1O (some centres unmarked) [MSmB]
Activity [1]: 4480 ± 870 nmol/min/mg
Relative Activity (%) [1]: (100) %
specific activity of pooled G-100 peak fractions ([4]; 30 μM MSmB as substrate): ~3,000 nmol/min-mg protein
amidase reaction rate ([4]; 30 μM MSmB, purified amidase): ~3000 nmol/min/mg
Km ([4]; MSmB as substrate): 95 ± 8 µM
kcat ([4]; MSmB as substrate): 8 s⁻¹
amidase activity [5]: 4.1 nmol/min/mg
AcCysmB produced [5, 8]: 5.4±0.3 nmoles/min/mg protein
GlcN-Ins produced [5, 8]: 4.1±0.05 nmoles/min/mg protein
rate enhancement relative to mycothiol (free thiol) ([5]; recombinant M. tuberculosis amidase): more than 2000 fold
conversion of MSmB ([2]; 60 min at 23° C.): 97%

CC(=O)N[C@@H](CSCc1c(C)c(=O)n2c(=O)c(C)c(C)n12)C(=O)O [AcCySmB]
product yielded from 1.0 equivalent of MSmB (0.1 nmol) [2]: 1.00±0.02 equivalent

CC(=O)N[C@@H](CS)C(=O)N[C@H]1[C@@H](OC2[C@H](O)[C@H](O)C(O)[C@H](O)[C@H]2O)O[C@H](CO)[C@@H](O)[C@@H]1O (stereo partly drawn) [Mycothiol, 1-D-myo-inosityl-2-(N-acetylcysteinyl)amido-2-deoxy-α-D-glucopyranoside]
rate as % of the rate with 0.1 mM MSmB ([1]; 2 mM mycothiol): 0.3%
rate of GlcN-Ins formation ([1]; 2 mM mycothiol, conditions otherwise as for Table 2): 14 ± 1 nmol/min/mg
Activity [1]: 4 ± 1 nmol/min/mg
Relative Activity (%) [1]: 0.1%
decrease of amidase activity ([6]; 1 mM mycothiol): 30±3%
decrease of amidase activity ([6]; 3 mM mycothiol): 48±3%
decrease of amidase activity ([6]; 10 mM mycothiol): 89±3%
amidase activity [5]: < 0.002 nmol/min/mg
GlcN-Ins produced [5, 8]: < 0.0023 nmoles/min/mg protein

Cc1c(C)n2c(CBr)c(C)c(=O)n2c1=O [mBBr, monobromobimane]
A600 ([7]; 8.5 h at 37 C after mBBr treatment): 1.6
final A600 ([7]; 30 h at 37 C after mBBr treatment): ~2.6
initial decrease of A600 value ([7]; during the 4 h incubation after 0.5 mM mBBr treatment): ~15%
A600 value recovered ([7]; within the 4 h incubation, equals initial value): 1.2
